Marks after values point to notes of the source that are not given here.
How the values were obtained:
[1] = test system: STZ-induced diabetic rats; assay: OGTT in STZ-induced diabetic rats (Example 8); assay type: in vivo, rat; details: for Plasma glucose 0 hr: before dosing; for Plasma glucose 0 hr / Plasma glucose 0.5 hr / Plasma glucose 1 hr / Plasma glucose 2 hr / Plasma glucose 3 hr / ΔAUC (0-1) / ΔAUC (0-1) (% of Control): glucose 2 g/kg, mean ± S.E.M.; for PG elevation after glucose administration: 0.03 and 0.1 mg/kg oral, OGTT 2 g/kg
Experimental: (§1) Study in diabetic rats with glucose. Diabetic rats, induced by intravenous injection of streptozotocin (STZ; 40 mg/kg), were used to determining plasma glucose concentration (PG) 1 hr after oral glucose tolerance test (OGTT). […] Blood was collected via the caudal artery immediately before dosing and 0.5, 1, 2, and 3 hr after dosing. The glucose concentration measurement in plasma used Glucose CII-Test Wako kit (Wako Pure Chemicals Industries, Ltd., Osaka, Japan). The variables used for efficacy assessment were the measurement values of the plasma glucose concentration and the area under the curve for plasma glucose concentration through 1 hr after loading (ΔAUC0-1 hr). The ΔAUC0-1 hr for plasma glucose was calculated based on the trapezoid method using the change of plasma glucose concentrations from pre-value (0 hr).

[2] = test system: STZ-induced diabetic rats; assay: Oral mixed-carbohydrate tolerance test (OMCTT) in STZ-induced diabetic rats (Example 9); assay type: in vivo, rat; details: for Plasma glucose 0 hr: before dosing; for Plasma glucose 0 hr / Plasma glucose 0.5 hr / Plasma glucose 1 hr / Plasma glucose 2 hr / Plasma glucose 3 hr / ΔAUC (0-1) / ΔAUC (0-1) (% of Control): mixed-carbohydrate load, mean ± S.E.M.; for PG elevation after glucose administration: 0.03 and 0.1 mg/kg oral, OMCTT
Experimental: as §1, with “with mixed carbohydrates.” for “with glucose.”, “oral mixed-carbohydrate” for “oral glucose”, “test (OMCTT).” for “test (OGTT).”

[3] = test system: healthy adult male volunteers; assay: Repeat dose study in humans, pharmacodynamic parameters after meals; assay type: in vivo, human; details: repeat dosing
Experimental: Repeat dose study in humans. Oral doses of 2 mg, 5 mg, 10 mg, 20 mg, of mizagliflozin, placebo or miglitol 50 mg per dose three times daily to healthy adult male volunteers by a randomized, placebo-controlled, parallel-group, double-blind comparison method. The dose was orally administered with approximately 150 mL of water once daily immediately before breakfast on Days 1 and 13, and three times daily immediately before every meal on Days 3 to 12.
Changes in the following parameters and ΔAUC from 0 to t* hours after breakfast, lunch, and evening meal were measured: Blood glucose level, Serum insulin concentration, Blood active GLP-1 concentration, and Blood total GIP concentration, where t=0.5, 1, 1.5, 2, and 3 (t=0.5, 1, 1.5, 2, 3, and 5 only after breakfast).
In the miglitol group, hyperglycemia was suppressed after breakfast, lunch, and evening meal, as compared to the placebo group. […] These pharmacodynamic effects more or less persisted during 10-day repeated administration. There was no correlation between plasma mizagliflozin concentration and the pharmacodynamic effects. Measurements in Tables 5-8 were performed on Day 3 after breakfast.

[4] = 50 mg per dose, Day 3 after breakfast

Structure (SMILES) | Plasma glucose 0 hr ([1]; 0.03 mg/kg oral) [mg/dL] | Plasma glucose 0.5 hr ([1]; 0.03 mg/kg oral) [mg/dL] | Plasma glucose 1 hr ([1]; 0.03 mg/kg oral) [mg/dL] | Plasma glucose 2 hr ([1]; 0.03 mg/kg oral) [mg/dL] | Plasma glucose 3 hr ([1]; 0.03 mg/kg oral) [mg/dL] | ΔAUC (0-1) ([1]; 0.03 mg/kg oral) [mg·h/dL] | ΔAUC (0-1) (% of Control) ([1]; 0.03 mg/kg oral) | Plasma glucose 0 hr ([1]; 0.1 mg/kg oral) | Plasma glucose 0.5 hr ([1]; 0.1 mg/kg oral) | Plasma glucose 1 hr ([1]; 0.1 mg/kg oral) | Plasma glucose 2 hr ([1]; 0.1 mg/kg oral) | Plasma glucose 3 hr ([1]; 0.1 mg/kg oral) | ΔAUC (0-1) ([1]; 0.1 mg/kg oral) | ΔAUC (0-1) (% of Control) ([1]; 0.1 mg/kg oral) | PG elevation after glucose administration [1] | Plasma glucose 0 hr ([2]; 0.03 mg/kg oral) [mg/dL] | Plasma glucose 0.5 hr ([2]; 0.03 mg/kg oral) | Plasma glucose 1 hr ([2]; 0.03 mg/kg oral) [mg/dL] | Plasma glucose 2 hr ([2]; 0.03 mg/kg oral) [mg/dL] | PG elevation after glucose administration [2] | further results
Cc1cc(OCCCN)ccc1Cc1c(O[C@@H]2O[C@H](CO)[C@@H](O)[C@H](O)[C@H]2O)n[nH]c1C(C)C [KGA-2586] | 128 ± 4 | 351 ± 22 | 350 ± 32 | 154 ± 20 | 86 ± 4 | 167 ± 20 | 86 ± 10 % of Control | 121 ± 8 ^ mg/dL | 236 ± 18^z mg/dL | 257 ± 24^x mg/dL | 193 ± 21^x mg/dL | 105 ± 12^ mg/dL | 91 ± 11^y mg · dL^−1 · hr | 47 ± 6^y % of Control | inhibited PG elevation after glucose administration dose dependently | 118 ± 8 | 269 ± 5^y mg/dL | 235 ± 8 | 112 ± 11 | inhibited PG elevation after glucose administration dose dependently | Plasma glucose 3 hr ([2]; 0.03 mg/kg oral): 108 ± 10 mg/dL; ΔAUC (0-1) ([2]; 0.03 mg/kg oral): 105 ± 4^x mg · dL^−1 · hr; ΔAUC (0-1) (% of Control) ([2]; 0.03 mg/kg oral): 64 ± 2^x % of Control; Plasma glucose 0 hr ([2]; 0.1 mg/kg oral): 126 ± 7^ mg/dL; Plasma glucose 0.5 hr ([2]; 0.1 mg/kg oral): 213 ± 11^z mg/dL; Plasma glucose 1 hr ([2]; 0.1 mg/kg oral): 215 ± 13 mg/dL; Plasma glucose 2 hr ([2]; 0.1 mg/kg oral): 144 ± 12 mg/dL; Plasma glucose 3 hr ([2]; 0.1 mg/kg oral): 108 ± 8^ mg/dL; ΔAUC (0-1) ([2]; 0.1 mg/kg oral): 65 ± 6^z mg · dL^−1 · hr; ΔAUC (0-1) (% of Control) ([2]; 0.1 mg/kg oral): 40 ± 4^z % of Control
Cc1cc(OCCCNCC(N)=O)ccc1Cc1c(O[C@@H]2O[C@H](CO)[C@@H](O)[C@H](O)[C@H]2O)n[nH]c1C(C)C [KGA-2588] | 137 ± 6 | 351 ± 29 | 363 ± 48 | 185 ± 25 | 101 ± 4 | 163 ± 23 | 84 ± 12 % of Control | 128 ± 8 ^ mg/dL | 249 ± 32^y mg/dL | 286 ± 51^ mg/dL | 221 ± 33^x mg/dL | 145 ± 5^z mg/dL | 100 ± 23^x mg · dL^−1 · hr | 51 ± 12^x % of Control | inhibited PG elevation after glucose administration dose dependently | 120 ± 3 | 291 ± 22 mg/dL | 248 ± 17 | 109 ± 7 | inhibited PG elevation after glucose administration dose dependently | Plasma glucose 3 hr ([2]; 0.03 mg/kg oral): 100 ± 6 mg/dL; ΔAUC (0-1) ([2]; 0.03 mg/kg oral): 117 ± 14 mg·h/dL; ΔAUC (0-1) (% of Control) ([2]; 0.03 mg/kg oral): 72 ± 9 % of Control; Plasma glucose 0 hr ([2]; 0.1 mg/kg oral): 123 ± 8 mg/dL; Plasma glucose 0.5 hr ([2]; 0.1 mg/kg oral): 258 ± 25^x mg/dL; Plasma glucose 1 hr ([2]; 0.1 mg/kg oral): 224 ± 23 mg/dL; Plasma glucose 2 hr ([2]; 0.1 mg/kg oral): 132 ± 4 mg/dL; Plasma glucose 3 hr ([2]; 0.1 mg/kg oral): 114 ± 6 mg/dL; ΔAUC (0-1) ([2]; 0.1 mg/kg oral): 93 ± 13 mg·h/dL; ΔAUC (0-1) (% of Control) ([2]; 0.1 mg/kg oral): 57 ± 8 % of Control
Cc1cc(OCCCNCCC(N)=O)ccc1Cc1c(O[C@@H]2O[C@H](CO)[C@@H](O)[C@H](O)[C@H]2O)n[nH]c1C(C)C [KGA-2727] | 120 ± 9 | 354 ± 34 | 342 ± 42 | 155 ± 24 | 85 ± 6 | 172 ± 21 | 89 ± 11 % of Control | 116 ± 6 ^ mg/dL | 233 ± 15^y mg/dL | 262 ± 19^ mg/dL | 194 ± 12^x mg/dL | 102 ± 16^ mg/dL | 95 ± 14^y mg · dL^−1 · hr | 49 ± 7^y % of Control | inhibited PG elevation after glucose administration dose dependently | 114 ± 7 | 317 ± 28 mg/dL | 250 ± 30 | 114 ± 5 | inhibited PG elevation after glucose administration dose dependently | Plasma glucose 3 hr ([2]; 0.03 mg/kg oral): 104 ± 7 mg/dL; ΔAUC (0-1) ([2]; 0.03 mg/kg oral): 135 ± 20 mg·h/dL; ΔAUC (0-1) (% of Control) ([2]; 0.03 mg/kg oral): 83 ± 12 % of Control; Plasma glucose 0 hr ([2]; 0.1 mg/kg oral): 124 ± 8 mg/dL; Plasma glucose 0.5 hr ([2]; 0.1 mg/kg oral): 240 ± 17^y mg/dL; Plasma glucose 1 hr ([2]; 0.1 mg/kg oral): 248 ± 29 mg/dL; Plasma glucose 2 hr ([2]; 0.1 mg/kg oral): 133 ± 4 mg/dL; Plasma glucose 3 hr ([2]; 0.1 mg/kg oral): 106 ± 9 mg/dL; ΔAUC (0-1) ([2]; 0.1 mg/kg oral): 89 ± 12 mg·h/dL; ΔAUC (0-1) (% of Control) ([2]; 0.1 mg/kg oral): 55 ± 7 % of Control
CC(C)c1[nH]nc(O[C@@H]2O[C@H](CO)[C@@H](O)[C@H](O)[C@H]2O)c1Cc1ccc(CCCC(=O)NC(C)(C)C(=O)N2CCNCC2)cc1 [KGA-2891] | – | – | – | – | – | – | – | – | – | – | – | – | – | – | inhibited PG elevation after glucose administration dose dependently | – | – | – | – | inhibited PG elevation after glucose administration dose dependently | –
OCCN1C[C@H](O)[C@@H](O)[C@H](O)[C@H]1CO [Miglitol, miglitol, reference compound] | – | – | – | – | – | – | – | – | – | – | – | – | – | – | – | – | – | – | – | – | AUC 0-5 GIP [3, 4]: 897.03 pg·h/mL; AUC 0-5 GLP-1 (active) [3, 4]: 20.5 pmol·h/L; AUC 0-5 Insulin [3, 4]: 138.33 uU*h/ml; AUC 0-5 glucose [3, 4]: 543.7 mg·h/dL; GIP (peak) [3, 4]: 235 pg/mL; GLP-1 (active) (peak) [3, 4]: 6.21 pmol/L; Glucose (peak) [3, 4]: 121.6 mg/dL; Insulin (peak) [3, 4]: 40.4 uU/ml; Time (h) to peak, GIP [3, 4]: 3 h; Time (h) to peak, GLP-1 (active) [3, 4]: 0.5 h; Time (h) to peak, glucose [3, 4]: 1.5 h; Time (h) to peak, insulin [3, 4]: 2 h; active GLP-1 concentration ([3]; healthy adult male volunteers): a tendency toward increase; hyperglycemia after breakfast, lunch, and evening meal ([3]; healthy adult male volunteers): suppressed; insulin secretion ([3]; healthy adult male volunteers): inhibition of insulin secretion; total GIP concentration ([3]; healthy adult male volunteers): inhibition of increase in total GIP concentration; total GLP-1 concentration ([3]; healthy adult male volunteers): an increase in total GLP-1 concentration

Reference: patent US11596644B2, “Method for treating post-prandial hypoglycemia” (AVOLYNT, priority 2018, dated 2023)
